Values quoted from earlier work as cited in patent publication US7959947B2, “Film coating” (AstraZeneca AB, priority 2001, dated 2011).

Conditions: 60° C.; according to data in Handbook of Pharmaceutical Excipients

- Solubility in water: 0.005 gram per gram water
Compound: CCCCCCCCCCCCCCCCCCOC(=O)/C=C/C(=O)[O-].[Na+] [Sodium stearyl fumarate, sodium salt of 2-butenedioic monooctadecyl ester]
